According to US20250243174A1, “ANTITUMORAL COMPOUNDS” (PHARMA MAR, S.A., priority 2021, published 2025):
Where two headings read alike, the source gives them in different places.

What was measured:
A549 = experiment: SRB colorimetric cytotoxicity assay, A549; assay type: cell-based; details: Homo sapiens, read-out: GI50 (M) A549
Description: The aim of this assay is to evaluate the in vitro cytostatic (ability to delay or arrest tumor cell growth) or cytotoxic (ability to kill tumor cells) activity of the samples being tested.
A colorimetric assay, using sulforhodamine B (SRB) reaction has been adapted to provide a quantitative measurement of cell growth and viability (using the technique developed by Skehan et al., J. Natl. Cancer Inst. 1990 and following the protocol detailed in V. Vichai and K. Kirtikara (2006) Nature Protoc. 1, 1112-1116.)
This form of assay employs 96-well cell culture microplates. All the cell lines used in this study were obtained from the American Type Culture Collection (ATCC), unless otherwise indicated, and derive from different types of human cancer.
Cells were maintained in Dulbecco's Modified Eagle Medium (DMEM) (for A549, HT-29 and MDA-MB-231) or RPMI (for PSN-1) supplemented with 10% Fetal Bovine Serum (FBS), 2 mM L-glutamine, 100 U/mL penicillin and 100 U/mL streptomycin at 37° C., 5% CO2 and 98% humidity. For the experiments, cells were harvested from subconfluent cultures using trypsinization and resuspended in fresh medium before counting and plating.
Cells were seeded in 96 well microtiter plates, at 5×10^3 cells per well in aliquots of 150 μL, and allowed to attach to the plate surface for 18 hours (overnight) in drug free medium. After that, one control (untreated) plate of each cell line was fixed (as described below) and used for time zero reference value. Culture plates were then treated with test compounds (50 μL aliquots of 4× concentrated compound stock solutions made in complete culture medium) using ten serial dilutions (concentrations ranging from […]) and triplicate cultures (final concentration of DMSO being 1%). After 72 hours treatment, the antitumor effect was measured by using the SRB methodology: Briefly, cells were washed twice with PBS, fixed for 15 min in 1% glutaraldehyde solution at room temperature, rinsed twice in PBS, and stained in 0.4% SRB solution for 30 min at room temperature. Cells were then rinsed several times with 1% acetic acid solution and air-dried at room temperature. SRB was then extracted in 10 mM trizma base solution and the absorbance measured in an automated spectrophotometric plate reader at 490 nm. Effects on cell growth and survival were estimated by applying the NCI algorithm (Boyd M R and Paull K D. Drug Dev. Res. 1995, 34, 91-104).
Using the mean±SD of triplicates, a dose-response curve was automatically generated using nonlinear regression analysis to a 4-parameter logistic curve. Three reference parameters were calculated (NCI algorithm) by automatic interpolation: GI50=compound concentration that produces […] cell growth inhibition, as compared to control cultures.

[1] = MTD (Maximum Tolerated Dose) determination; details: Athymic Nude-Fox1 nu/nu, mouse, in vivo; iv, single dose; female athymic nude mice
Method: Female Athymic Nude-Fox1 nu/nu mice (Envigo) were utilized for all experiments. Animals (N=10/cage) were housed in individually ventilated cages (Sealsafe Plus®, Techniplast S.P.A.), on a 12-hour light-dark cycle at 21-23° C. and 40-60% humidity. Mice were allowed free access to irradiated standard rodent diet (Tecklad 2914C) and sterilized water. Animals were acclimated for five days prior to being individually tattoo-identified. Animal protocols were reviewed and approved according to the regional Institutional Animal Care and Use Committees.
Mice were randomly allocated into experimental groups and intravenously administered, once for the MTD (Maximum Tolerated Dose) determination or one administration a week during three consecutive weeks, for the MTMD (Maximum Tolerated Multiple Dose) determination study. The animals were administered with white formulation or with compound dissolved in the experimental formulation at different concentrations. The volume administered was always 10 mL/kg. Once administered, animals were monitored for clinical signs of systemic toxicity, changes in body weight and mortality up to 14 days after the administration.

COC1=CC[C@@H]([C@@H](C)/C=C(C)/C=C\C=C/C(=O)N[C@H](C(=O)N/C=C\C[C@H](C/C=C(\C)F)OC(N)=O)C(C)(C)C)OC1=O [Compound 2]
GI50 (A549; A549, 72 h): 4.55e-11 M | MTD at 14 days [1]: 2 mg/kg

COC1=CC[C@@H]([C@@H](C)/C=C(C)/C=C\C=C/C(=O)N[C@H](C(=O)N/C=C\C[C@H](CC=C(C)C)OC(N)=O)C(C)(C)C)OC1=O [Compound 3]
GI50 (A549; A549, 72 h): 5.98e-11 M | MTD at 14 days [1]: 1 mg/kg

C/C=C\C[C@@H](C/C=C\NC(=O)[C@@H](NC(=O)\C=C/C=C\C(C)=C\[C@H](C)[C@@H]1CC=C(OC)C(=O)O1)C(C)(C)C)OC(N)=O [PM060184, reference compound]
GI50 (A549; A549, 72 hours treatment, SRB): 1.71e-10 M | MTD [1]: 16 mg/kg
